pIC50: −log10 of the molar value.
System: P. falciparum 3D7 growth, pLDH absorbance
Test: P. falciparum 3D7 growth inhibition, dose response, strain 3D7 (AID 2305)

Structure (SMILES)	pIC50
CCCCCCCCCN1CC[C@@H](CCCc2ccnc3ccc(O)cc23)[C@@H](CC)C1	6.54
COc1ccc2nccc([C@@H](O)CN3CCC(NCc4nc5c(F)cc(F)cc5[nH]4)CC3)c2c1	6.24
Fc1cccc(C=NNc2ccnc3ccccc23)c1	6.08
CCc1c(C)c(C#N)c2nc3ccccc3n2c1NCc1ccco1	6.15
Cc1cc(OCCCN=C(N)c2ccc3ccccc3c2)c(C(C)C)cc1Cl	6.01
Cc1cccc2[nH]c(-c3ccc(-c4cccc(NC(=O)C(C)CN5CCN(C)CC5)c4)s3)nc12 (stereo not drawn)	6.12
COc1cc2nccc(Nc3cc(C)cc(O)c3)c2cc1OC	6.04
CN1CCCN(c2ccnc3cc4c(cc23)N(C(=O)c2ccccc2Cl)CC4)CC1	5.93
Cc1cc(Nc2ccc(C)c(Cl)c2)n2nc(C(F)(F)F)nc2n1	7.70
COc1ccc(CNC2CCN(C)CC2)cc1-c1ccc(OC)c(S(=O)(=O)NCc2ccccc2)c1	6.02
Oc1ccc(CCNc2nc(NCCCOc3ccccc3-c3cccc(C(F)(F)F)c3)nc(N3CCNCC3)n2)cc1	6.06
COc1ccc2ncc(F)c(CCN3CCC(NCc4cc(C)c5c(c4)OCCO5)CC3)c2n1	6.31
CN(C)CCN(C)Cc1ccc(-c2cccc(NC(=O)c3ccc(Cl)cc3)c2)cc1	6.25
O=C(Nc1ccc(F)cc1)NC1CCN(CCCCCNC(=O)[C@@H]2C[C@H]2c2ccc(Cl)c(Cl)c2)CC1	6.00
COC(=O)c1cccc(NC(=O)NC2CCN(c3ccnc(Nc4ccc(OC)cc4)n3)C2)c1 (stereo not drawn)	6.33
O=C(Nc1ccncc1)c1cn(-c2ccccc2)nc1-c1cccs1	6.01
Cc1cc(Nc2cccc(C(F)(F)F)c2)nc2ccc(NC(=O)c3ccc(=O)[nH]c3)cc12	6.31
Cc1cc(OCC2CCN(c3ccc(C(=O)NC4CC4)cn3)CC2)ccc1F	6.06
Cc1ccc(C)c(C2CCN(CCCCNC(=O)c3ccc(NC(=O)c4ccc(Cl)cc4)cc3)CC2)c1	6.07
Cc1cccc2[nH]c(-c3ccc(-c4ccc(NC(=O)Nc5ccc(Cl)cc5)cc4)cc3)nc12	7.00
COc1cc(CNc2ncc(-c3ccsc3)c(-c3nccs3)n2)cc(OC)c1	6.89
O=C(CCc1cccc(O)c1)NCC(NCCCNc1cc(=O)c2ccccc2[nH]1)c1cc(Br)cc(Br)c1 (stereo not drawn)	5.93
Cc1[nH]c2ccc(O)cc2c1C1CCN(CC2CCC(NC(=O)/C=C/c3c(Cl)cccc3Cl)CC2)CC1 (stereo not drawn)	6.09
O=C(CCCc1ccccc1)Nc1cccc(N2CCC(N3CCN(c4ccccc4O)CC3)CC2)c1	6.10
CC(Oc1cccc(Cl)c1)C(=O)N1CCc2ccccc21 (stereo not drawn)	6.29

Structure (SMILES)	pIC50
CN(C)CCCN(C)C(=O)c1cc2cc(-c3ccccc3)ccc2n1S(=O)(=O)c1ccccc1	6.34
Cc1ccc(CN2CCN(c3cc4c(cc3Cl)CCN4C(=O)Cc3ccc(NC(=O)c4ccc(C(F)(F)F)cc4)cc3)CC2)cc1	6.03
COc1cc2nc(N3CCN(C(=O)c4ccco4)CC3)nc(NCc3ccccc3)c2cc1OC	6.77
COc1ccc(C2NCCc3c2[nH]c2ccccc32)cc1CN1CCN(c2ccc(F)cc2)CC1 (stereo not drawn)	6.11
CO/C(=C\C=C\c1cc2cc(Cl)c(Cl)cc2[nH]1)C(=O)NC1CCN(CCNc2ccccc2)CC1	6.59
O=C(/C=C/C=C/c1ccccc1)NC1CCC(CN2CCC(c3c[nH]c4ccccc34)CC2)CC1 (stereo not drawn)	6.06
COc1ccccc1NC(=O)Nc1cccc(-c2cccc(-c3nc4ccc(C(F)(F)F)cc4[nH]3)c2)c1	6.92
COc1cc2nc(N3CCN(C(=O)c4cccc(I)c4)CC3)nc(N)c2cc1OC	5.88
O=C(/C=C/c1ccccc1Cl)Nc1ccc(Br)c(OCCN2CCN(CCN3CCOCC3)CC2)c1	6.12
O=C(Nc1ccc(N2CCCCC2)c(Cl)c1)c1ccco1	6.39
O=C(Cc1ccccc1)NC(c1ccc(Cl)cc1)c1ccc2cccnc2c1O (stereo not drawn)	6.07
Cc1[nH]c(/C=C2\C(=O)Nc3ccc(S(=O)(=O)Cc4c(Cl)cccc4Cl)cc32)c(C)c1C(=O)N1CCC[C@@H]1CN1CCCC1	6.14
CCCCC#Cc1cnc2nc(N)[nH]c(=O)c2n1	6.19
COc1ccc2c(=O)c3ccc(OC)cc3[nH]c2c1	6.09
c1ccc(-n2ncc(CNCc3ccc(-c4cccc(-c5nc6ccccc6[nH]5)c4)cc3)n2)cc1	5.91
N=C(N)c1ccc(Nc2nccc(Nc3nc(-c4ccccc4)cs3)n2)cc1	6.12
Cc1cccc2nc(C(=O)Nc3nc(CN4CCC(C)CC4)cs3)cn12	6.12
COc1ccc(-c2cccc(NC(=O)c3ccc(Cl)cc3)c2)cc1CNC(C)C	6.16
CS(=O)(=O)Cc1ccc(Nc2nccc(N3CCCc4cc(NC(=O)Nc5cccc(C(F)(F)F)c5)ccc43)n2)cc1	6.82
CCOc1cc(Cc2cnc(N)nc2N)cc(OCC)c1OCCCCC(=O)OC	7.40
CCN(CCCN1CCCCC1)c1cc(C)nc(Nc2ccc(Cl)c(C(F)(F)F)c2)n1	6.77
CN(C)c1ccc(CN2CCC(CNC(=O)c3cc(-c4ccccc4Cl)cs3)C2)cc1 (stereo not drawn)	5.84
CCCCCC(NCCCC)c1ccc(OCCOc2ccc(C(CCCCC)NCCCC)cc2)cc1 (stereo not drawn)	5.91
COc1ccc2[nH]c(C(=O)Nc3cccc(-c4ccc(CN(C)C)cc4)c3)cc2c1	6.04
CN1CCN(c2ccnc3cc4c(cc23)N(Cc2ccccc2)CC4)CC1	5.94

Structure (SMILES)	pIC50
Cc1cc(NN=Cc2ccccc2)c2cc(F)ccc2n1	6.24
COc1cc(OC)cc(-c2nn(-c3ccc([N+](=O)[O-])cc3Cl)c(=S)n2CC2CCCO2)c1 (stereo not drawn)	6.02
COCCn1c(-c2cccc(Cl)c2)nn(-c2ccc([N+](=O)[O-])cc2C#N)c1=S	6.74
O=C(/C=C/c1ccc(Cl)cc1)NCCCCCN1CCCC(C(=O)Nc2ccc(Cl)c(Cl)c2)C1 (stereo not drawn)	6.08
FC(F)(F)c1ccc2nc(-c3ccc(-c4cccc(CN5CCCCC5)c4)cc3)[nH]c2c1	6.85
CCN1CCN(Cc2ccc(-c3ccc(NS(=O)(=O)c4cccc5cccnc45)cc3)cc2)CC1	6.04
CCN(CCNC(=O)C1CCN(c2cc(-c3cccc(C)c3)ncn2)CC1)Cc1ccccc1	6.77
COc1ccc(F)cc1-c1csc(N(c2ccc(F)cc2)C2CCNCC2)n1	5.92
Cc1cc(N2CCCC2)nc(Nc2ccc(NC(=O)Cc3ccccc3)cc2)n1	6.21
COc1ccc(NC(=O)c2cccc(Br)c2)cc1N1CCN(CCCCCCCN2CCN(c3cc(NC(=O)c4cccc(Br)c4)ccc3OC)CC2)CC1	6.74
CN(C)CCNCc1ncsc1-c1ccc2c(Nc3ccc(F)cc3Cl)ccnc2c1	5.83
OC(CN(Cc1ccccc1)Cc1ccccc1)Cn1c2ccc(Cl)cc2c2cc(Cl)ccc21 (stereo not drawn)	6.00
Fc1cc(Cl)ccc1Nc1ccnc2cc(-c3ccc(CN4CCOCC4)o3)ccc12	6.19
N#Cc1cccc(NC(=O)C2=C(CCc3ccc4c(c3)OCO4)NC(=O)NC2c2cccc(C#N)c2)c1 (stereo not drawn)	6.08
COc1ccc(CCN(C)CCCOc2ccc(NC(=O)c3cccc4c(=O)c5ccccc5[nH]c34)cc2)cc1OC	6.04
COc1ccc(-c2cncc(-c3ccc(OC)c(OC)c3)n2)cc1OC	6.11
CCN1CCCC1CN(Cc1ccc(-c2ccc(C(F)(F)F)cc2)cc1)C(=O)Cn1c(CCc2cccc(F)c2F)nc(=O)c2ccccc21 (stereo not drawn)	5.80
O=C(Nc1cccc(C(F)(F)F)c1)c1ccc(S(=O)(=O)NCC2CCCN(CC3CCCCC3)C2)cc1 (stereo not drawn)	6.05
O=C(Nc1cccc(CN2CCCN(Cc3ccccc3)CC2)c1)c1ccc(Cl)c(Cl)c1	6.05
COc1cc(C=NNc2ccnc3cc(Cl)ccc23)ccc1O	6.89
Fc1ccc2nc(-c3cccc(-c4ccc(CNCc5cnn(-c6ccccc6)n5)cc4)c3)[nH]c2c1	6.04
c1cc(-c2ccc(CN3CCCC3)cc2)cc(-c2nc3ccccc3[nH]2)c1	6.16
N#CCCn1nc(-c2ccc(Cl)cc2)c2c(c1=O)CCCC2	6.05
Cc1ccc(Nc2nccc(NCC(O)c3ccc(C(F)(F)F)cc3)n2)cc1 (stereo not drawn)	6.31
COc1ccc(C)c(Nc2ccnc(Nc3cccc(-c4nc5ccccc5[nH]4)c3)n2)c1	6.14

Structure (SMILES)	pIC50
Nc1ccc(-c2nc3ccc(Oc4ccc5nc(-c6ccc(N)cc6)[nH]c5c4)cc3[nH]2)cc1	6.14
CCOc1cc2ncnc(Nc3ccc(OCc4ccccc4Br)c(OC)c3)c2cc1OCC	6.33
NC(N)=NN=Cc1c2ccccc2c(Cl)c2cc(Cl)ccc12	6.10
COc1cc2c(cc1C(F)(F)F)N(C(=O)Nc1cccc(-c3ccc(CN(C)C)cc3)c1)CC2	6.15
NCC1CCCN1Cc1cccc(-c2ccc(-c3nc4ccc(C(F)(F)F)cc4[nH]3)s2)c1 (stereo not drawn)	6.12
O=C1C=Cc2ccccc2/C1=C/c1sc(=NCc2ccccc2)n(Cc2ccccc2)c1O	6.80
Cc1ccc(Nc2ccnc3cc(-c4nccs4)ccc23)cc1C(O)c1ccccc1 (stereo not drawn)	6.13
O=C(N[C@@H](CC1CCCCC1)C(=O)NCCN1CCCC1)c1ccc(O)c(-c2cccc(C(F)(F)F)c2)c1	6.12
CC1(C)Cc2c([nH]c3ccccc23)C(CCCCCCCCC2=NC(C)(C)Cc3c2[nH]c2ccccc32)=N1	6.03
CC(C)C(=O)NC(Nc1ccc([N+](=O)[O-])cc1)C(Cl)(Cl)Cl (stereo not drawn)	6.08
CCC[C@@H]([C@@H](CC1CCCCC1)C(=O)N[C@H](C(=O)Nc1nccs1)[C@@H](C)OCc1ccccc1)N(O)C=O	7.10
Nc1nccc2ccc(-c3cccc(OCc4ccccc4)c3)cc12	6.54
Nc1nc(N)c(-c2ccccc2)c(=O)[nH]1	6.00
COc1cc(C(=O)Nc2nc3ccccc3[nH]2)ccc1OCC(=O)Nc1cccc(C(F)(F)F)c1	6.13
O=C(/C=C/c1ccc(Cl)c(Cl)c1)NCCCCCN1CCN(C(=O)Nc2ccc(C(F)(F)F)cc2)CC1	6.14
Cc1cccc(NC(=O)NCc2ccccc2)n1	6.03
Cc1ccc(NC(=O)c2ccc(CN3CCCN(Cc4cccc(O)c4)CC3)cc2)cc1F	6.23
O=C(Nc1cccc(C(F)(F)F)c1)c1ccc(S(=O)(=O)NCC2CCCN2CC2CCCCC2)cc1 (stereo not drawn)	6.12
CCc1ccc(CN2CCC(CNC(=O)c3cc(-c4cccc(C(F)(F)F)c4)cs3)C2)cc1 (stereo not drawn)	6.12
COc1nc(NCC(C)C)nc(Oc2ccc(=O)n(Cc3ccccc3)n2)n1	6.20
C[C@H](Cc1ccc(C[C@@H](C)NC[C@H](O)c2cccc(Cl)c2)cc1)NC[C@H](O)COc1ccccc1	5.93
COc1ccc(Nc2nc(NCc3ccco3)c3ccccc3n2)cc1	6.13
CCc1cc2c(O)c([N+](=O)[O-])c(=O)oc2cc1OCCCCCOc1cc2oc(=O)c([N+](=O)[O-])c(O)c2cc1CC	6.59
